A short description of data set [1]: Partition coefficient (logP). To be noted: octanol/water.
The test system of another data set is Salmonella typhimurium. Put plainly: Mutagenic activity in an Ames test on Salmonella Typhimurium TA98; Activity is log of revertants/nmol. The class given is functional, Salmonella enterica subsp. enterica serovar Typhimurium. Also on record: scale not given here.

For orientation: logP means a log measure of how a compound divides between an organic and an aqueous phase.

Structures are written as SMILES.

The compound `O=[N+]([O-])c1cc2cccnc2c2ncccc12` gave a lipophilicity (logP) in data set [1] of 1.84. In the data set with Salmonella typhimurium, this compound gave an Activity of 0.59.
Regarding `O=C(/C=C/c1ccc([N+](=O)[O-])cc1)c1ccc([N+](=O)[O-])cc1`, in data set [1], the logP amounted to 2.73. For the same compound, the Activity in the data set on Salmonella typhimurium is reported as -1.42.
For `O=[N+]([O-])c1ccc(F)cc1`, in data set [1], the logP is 1.8. Moreover, in the data set with Salmonella typhimurium, the Activity is on record as -0.23.
Taken in the same sequence, the figures for `O=[N+]([O-])c1c2ccccc2c2ccc3cccc4ccc1c2c43` were 5.87 and 1.64.
In data set [1], `Nc1ccc(-c2cccc([N+](=O)[O-])c2)cc1` registered a logP of 2.68. The compound also registered an Activity with Salmonella typhimurium of -1.52.
The corresponding values for `O=C/C=C/c1ccc([N+](=O)[O-])o1` are 0.96 and 1.97.
The corresponding values for `Nc1ccccc1-c1cccc([N+](=O)[O-])c1` are 2.68 and -1.52.
The corresponding values for `C=Cc1ccc([N+](=O)[O-])cc1` are 2.61 and -1.3.
Consider `O=[N+]([O-])c1cccc2ncccc12`, for which the logP in data set [1] worked out at 1.86. Moreover, the Activity with Salmonella typhimurium is -0.96.
For `O=[N+]([O-])c1ccc2ccc3c([N+](=O)[O-])cc([N+](=O)[O-])c4ccc1c2c34`, the lipophilicity (logP) in data set [1] worked out at 4.18. This compound had an Activity with Salmonella typhimurium of 4.99.
The corresponding values for `O=[N+]([O-])c1ccc2cccc3c2c1CC3` are 3.81 and 1.
`O=[N+]([O-])c1ccc2[nH]ccc2c1` registered a logP in data set [1] of 2.13. For the same compound, the Activity in the data set with Salmonella typhimurium is on record as 0.57.
On to `O=[N+]([O-])c1ccc2c(c1)Cc1cccc([N+](=O)[O-])c1-2`, for which the logP in data set [1] is 3.71. Further, the Activity in the data set with Salmonella typhimurium turned out to be 3.2.
For the compound `O=[N+]([O-])c1c(Cl)c(Cl)c2c(c1Cl)Oc1cc(Cl)c(Cl)cc1O2`, in data set [1], the logP was 7.84. In the data set on Salmonella typhimurium, this compound returned an Activity of -0.33.
For `O=[N+]([O-])c1cc(F)ccc1F`, the logP in data set [1] was found to be 1.89. In the data set on Salmonella typhimurium, this compound came in with an Activity of -0.79.
Regarding `O=[N+]([O-])c1ccc2c(c1)Cc1cc(Cl)ccc1-2`, the logP in data set [1] stood at 4.68. The Activity in the data set on Salmonella typhimurium turned out to be 3.11.
Taken in the same sequence, the figures for `O=C(/C=C/c1ccc([N+](=O)[O-])o1)N/N=C/c1ccc([N+](=O)[O-])o1` were 2.79 and 2.45.
Taken in the same sequence, the figures for `O=[N+]([O-])c1ccc2c3c([N+](=O)[O-])ccc4ccc5ccc6ccc1c2c6c5c43` were 6.07 and 4.33.
Taken in the same sequence, the figures for `O=[N+]([O-])c1ccc2c(c1)Cc1cc(O)ccc1-2` were 3.43 and 1.68.
In data set [1], `Cc1c([N+](=O)[O-])ccc2ccccc12` displayed a logP of 3.43. Further, the Activity in the data set with Salmonella typhimurium is on record as -0.7.
In data set [1], `Cc1ccc2c(c1)Cc1cc([N+](=O)[O-])ccc1-2` registered a logP of 4.62. The Activity in the data set on Salmonella typhimurium amounted to 2.36.
For `O=[N+]([O-])c1ccc2c3c(ccc([N+](=O)[O-])c13)-c1ccccc1-2`, in data set [1], the logP stood at 4.44. The same compound came in with an Activity in the data set with Salmonella typhimurium of 3.62.
Consider `O=[N+]([O-])c1cc2ccccc2c2ccccc12`, for which, in data set [1], the logP was 4.23. Besides, the Activity with Salmonella typhimurium stood at 2.25.
The corresponding values for `O=[N+]([O-])c1cc2c3c(cccc3c1[N+](=O)[O-])-c1ccccc1-2` are 4.44 and 2.62.
Taken in the same sequence, the figures for `O=[N+]([O-])C1=CC2Nc3ccc([N+](=O)[O-])cc3NC2C=C1` (stereo unspecified) were 2.29 and 4.34.
Taken in the same sequence, the figures for `O=[N+]([O-])c1ccc2c(c1)Oc1ccccc1O2` were 4.73 and 1.79.
`CN1Cc2ccc([N+](=O)[O-])cc2N1`: the lipophilicity (logP) in data set [1] amounted to 1.77. In the data set with Salmonella typhimurium, this compound gave an Activity of -0.41.
Taken in the same sequence, the figures for `O=[N+]([O-])c1ccc2c(ccc3c4ccccc4ccc23)c1` were 5.41 and -0.22.
In the case of `O=[N+]([O-])c1cc2c3c(cccc3c1)-c1ccccc1-2`, in data set [1], the logP is 4.69. In the data set with Salmonella typhimurium, this compound yielded an Activity of 3.01.
As for `O=[N+]([O-])C1=Cc2c3c1cccc3cc1ccc3ccccc3c21`, the lipophilicity (logP) in data set [1] came out at 5.07. Also, the Activity in the data set with Salmonella typhimurium was 0.26.
On to `CC(=O)Nc1ccc2c(c1)Cc1cc([N+](=O)[O-])ccc1-2`, for which the logP in data set [1] turned out to be 3.08. For the same compound, in the data set on Salmonella typhimurium, the Activity was found to be 2.85.
The corresponding values for `O=[N+]([O-])c1cc2c([N+](=O)[O-])ccc3c2c(c1[N+](=O)[O-])-c1ccccc1-3` are 4.18 and 3.56.
Taken in the same sequence, the figures for `Cn1ncc2cc([N+](=O)[O-])ccc21` were 1.77 and -0.82.
In turn, `O=[N+]([O-])c1ccc(F)c([N+](=O)[O-])c1` returned a logP in data set [1] of 1.49. Further, the Activity in the data set on Salmonella typhimurium is reported as 1.2.
Taken in the same sequence, the figures for `O=[N+]([O-])c1ccc(F)c(Cl)c1` were 2.74 and -1.21.
Taken in the same sequence, the figures for `Nc1ccc2c(c1)Cc1cc([N+](=O)[O-])ccc1-2` were 3.06 and 1.56.
`CCOc1ccccc1[N+](=O)[O-]` gave a lipophilicity (logP) in data set [1] of 2.35. In the data set with Salmonella typhimurium, this compound registered an Activity of -2.22.
The compound `O=[N+]([O-])c1c2ccccc2cc2c1ccc1ccccc12` returned a logP in data set [1] of 5.41. The Activity with Salmonella typhimurium is -0.52.
The corresponding values for `O=[N+]([O-])c1ccc2c(c1)NCC2` are 1.92 and -0.48.
With `O=[N+]([O-])c1cccc(Cl)c1Cl`, the logP in data set [1] came to 3.05. In the data set with Salmonella typhimurium, this compound yielded an Activity of -1.51.
Taken in the same sequence, the figures for `O=[N+]([O-])c1ccc2ccc3c([N+](=O)[O-])ccc4ccc1c2c43` were 4.44 and 5.06.
The corresponding values for `O=[N+]([O-])C1=Cc2cccc3c2c1cc1cc2ccccc2cc13` are 5.07 and 0.92.
In the case of `O=[N+]([O-])c1ccc(F)cc1[N+](=O)[O-]`, the logP in data set [1] was found to be 1.89. The compound further came in with an Activity in the data set on Salmonella typhimurium of -1.84.
Taken in the same sequence, the figures for `O=[N+]([O-])c1ccc(-c2cccc([N+](=O)[O-])c2)cc1` were 3.52 and 0.23.
Take `Nc1cccc(-c2ccccc2[N+](=O)[O-])c1`: the lipophilicity (logP) in data set [1] came to 2.68. In addition, the Activity in the data set on Salmonella typhimurium is listed as -2.
Taken in the same sequence, the figures for `O=[N+]([O-])c1ccc2c3c(cccc13)-c1ccccc1-2` were 4.69 and 3.67.
Taken in the same sequence, the figures for `O=[N+]([O-])C1=CC=CC2Nc3cccc([N+](=O)[O-])c3NC12` (stereo unspecified) were 2.29 and 1.26.
The corresponding values for `O=[N+]([O-])c1ccc2c(c1)CC=C2` are 2.74 and 0.96.
With `O=Cc1ccc([N+](=O)[O-])o1`, the lipophilicity (logP) in data set [1] amounted to 1.01. This compound yielded an Activity in the data set on Salmonella typhimurium of 0.64.
Taken in the same sequence, the figures for `Nc1ccccc1-c1ccc([N+](=O)[O-])cc1` were 2.68 and -1.7.
Taken in the same sequence, the figures for `O=[N+]([O-])c1ccc2c(c1)Cc1cc(I)ccc1-2` were 5.09 and 2.97.
Taken in the same sequence, the figures for `O=[N+]([O-])c1cc2c3c(c([N+](=O)[O-])c([N+](=O)[O-])cc3c1)-c1ccccc1-2` were 4.18 and 3.16.
Compound `O=[N+]([O-])c1ccc2c(c1)-c1ccc([N+](=O)[O-])c3cccc-2c13` registered a logP in data set [1] of 4.44. Also, the Activity in the data set on Salmonella typhimurium came out at 5.02.
Taken in the same sequence, the figures for `O=[N+]([O-])c1cccc2cnccc12` were 1.65 and -1.55.
Consider `O=[N+]([O-])C1=Cc2cc3cc4ccccc4cc3c3cccc1c23`, for which the logP in data set [1] came to 5.07. The Activity in the data set with Salmonella typhimurium is recorded as 0.67.
The corresponding values for `O=[N+]([O-])c1cccc2c1-c1cccc3c([N+](=O)[O-])ccc-2c13` are 4.44 and 5.09.
Taken in the same sequence, the figures for `O=[N+]([O-])c1cc([N+](=O)[O-])c2c3c(c4cccc5ccc1c2c54)CCCC3` were 6.01 and 2.41.
For `O=C(Nc1ccc2c(c1)Cc1cc([N+](=O)[O-])ccc1-2)C(F)(F)F`, the logP in data set [1] turned out to be 4.23. For the same compound, the Activity in the data set with Salmonella typhimurium was found to be 2.81.
The corresponding values for `O=[N+]([O-])c1ccc2c3ccc([N+](=O)[O-])c4ccc5ccc6ccc1c2c6c5c43` are 6.07 and 3.6.
For `Cn1c([N+](=O)[O-])nc2ccccc21`, the log partition coefficient (logP) in data set [1] was 1.58. The same compound displayed an Activity with Salmonella typhimurium of 2.54.
`O=[N+]([O-])c1cccc2[nH]c3ccccc3c12`: the logP in data set [1] is 3.51. Further, the Activity with Salmonella typhimurium was -2.
On to `O=[N+]([O-])c1ccc(Cl)c(Cl)c1Cl`, for which the logP in data set [1] is 3.61. The Activity in the data set on Salmonella typhimurium is listed as -2.94.
Taken in the same sequence, the figures for `O=[N+]([O-])c1ccc2ccc3c4c(cc5ccc1c2c53)CCCC4` were 6.57 and 0.3.
`O=C1c2ccccc2-c2cc([N+](=O)[O-])ccc21`: in data set [1], the logP was 3.06. This compound also yielded an Activity with Salmonella typhimurium of 2.13.
`O=[N+]([O-])c1cc2ccc3cccc4ccc(c1)c2c34`: the logP in data set [1] is 4.69. The Activity with Salmonella typhimurium worked out at 3.35.
Taken in the same sequence, the figures for `O=[N+]([O-])C1=Cc2ccc3ccc4cccc5cc1c2c3c45` were 4.35 and 0.77.
Consider `O=[N+]([O-])c1ccc2c(c1)Cc1cc(Br)ccc1-2`, for which the logP in data set [1] was 4.83. This compound came in with an Activity with Salmonella typhimurium of 3.06.
`O=[N+]([O-])C1Cc2cccc3cccc1c23` (stereo unspecified): in data set [1], the logP came out at 2.72. In addition, in the data set with Salmonella typhimurium, the Activity amounted to 1.77.
The corresponding values for `O=[N+]([O-])c1cc2c3c(ccc4cccc(c43)CC2)c1` are 4.99 and 3.27.
Taken in the same sequence, the figures for `O=[N+]([O-])c1ccc2c(c1)-c1cccc3cccc-2c13` were 4.69 and 4.05.
Taken in the same sequence, the figures for `COc1ccc2c(c1)Cc1cc([N+](=O)[O-])ccc1-2` were 3.95 and 2.79.
`O=[N+]([O-])c1cc2c3c(cc([N+](=O)[O-])c([N+](=O)[O-])c3c1)-c1ccccc1-2` had a logP in data set [1] of 4.18. The Activity in the data set with Salmonella typhimurium was 3.44.
Taken in the same sequence, the figures for `O=[N+]([O-])c1ccc2cn[nH]c2c1` were 2.06 and 0.66.

For the origin of these results see ChEMBL document CHEMBL1125820, “Structure-activity relationship of mutagenic aromatic and heteroaromatic nitro compounds. Correlation with molecular orbital energies and hydrophobicity” (J Med Chem, 1991).
